{"source": "patent US20070059254A1", "about": "“Compositions for delivering 5-ht agonists across the oral mucosa and methods of use thereof” (TRANSORAL PHARMACEUTICALS, INC., priority 2003, published 2007)", "key": {"[1]": {"experiment": "Sumatriptan membrane assay (dodecane membrane between donor and acceptor cell)", "format": "in vitro ADME", "details": "pH 9.0 to 10.0", "description": "Topics Med. Chem., 1:277-351 (2001). This assay uses a lipid-coated membrane to predict lipid mucosal membrane penetration. The membrane apparatus consists of a dodecane membrane sandwiched between a donor and acceptor cell. The lipid-coated membrane is less porous then the mucous membrane of the oral cavity. Thus, the enhancement seen in the membrane assay is very likely to be magnified in vivo. […] The final pH values of these solutions were adjusted using freshly prepared 0.01 M sodium bicarbonate/sodium carbonate buffer. Permeation was measured by determining the concentration of sumatriptan in the acceptor cell, and is expressed as Pe (effective permeability in centimeters per second)."}, "[2]": {"experiment": "Dissociation constant (pKa) and extent of ionization", "format": "physicochemical", "description": "Conversion of the ionized form to the un-ionized form for the 5-HT agonist is related to pH according to the formula: pH=pKa+Log10 (un-ionized concentration/ionized concentration). When the pH is the same as the pKa, equimolar concentrations of the un-ionized form and ionized form exist. […] As noted above, the un-ionized form is lipophilic and, therefore, more capable of passing through mucous membranes such as the oral mucosa than the ionized form, which is lipophobic in nature. Accordingly, increasing the pH of the saliva favors conversion of the ionized form into the un-ionized form for basic compounds such as the 5-HT agonists described herein, and the final pH can be determined by making use of the above formula. […] The final pH values of these solutions were adjusted using freshly prepared 0.01 M sodium bicarbonate/sodium carbonate buffer. Permeation was measured by determining the concentration of sumatriptan in the acceptor cell, and is expressed as Pe (effective permeability in centimeters per second)."}}}
{"smiles": "CNS(=O)(=O)Cc1ccc2[nH]cc(CCN(C)C)c2c1", "note": "[sumatriptan]", "values": [{"measurement": "change of effective permeability with pH", "setting": "[1]", "value": "increased with pH"}, {"measurement": "un-ionized fraction", "setting": "[2]; at pH 10.5", "value": 90, "unit": "%"}, {"measurement": "un-ionized fraction", "setting": "[2]; at pH 11.5", "value": 100, "unit": "%"}]}
